The values that follow come from patent US8119798B2, “P38 kinase inhibitors” (GlaxoSmithKline LLC, priority 2006, dated 2012).

The structures appear in SMILES notation.

This test relates to secretion of TNF-α from LPS-stimulated human monocytes. As to the kind of experiment: LPS-induced TNF-alpha production in human THP-1 cell line. Format: cell-based. To be noted: Monocyte, read-out: EC50, inhibition of secretion of TNF-α from LPS-stimulated human monocytes. As to the method: THP-1 (human, monocytic) cell line was purchased from the American Type Culture Collection (ATCC, Cat. No.TIB 202). Cell line was passaged three times per week in RPMI 1640 (GIBCO), supplemented with 10% heat-inactivated fetal bovine serum (FBS; Omega Scientific, Tarzana, Calif.), 2 mM L-glutamine, 100 U/ml penicillin and 100 μg/ml streptomycin (Gibco/Invitrogen, Carlsbad, Calif.) in a humidified incubator with 95% air and 5% CO2 at 37° C.
For the assay THP-1 cells were harvested, counted and suspended at 1E6 cells/ml in culture medium. 200 μl of cell suspension was added to each well at 96 well plates to provide density of 2×10^5 cells per well. Serial dilutions of P38 compounds were prepared at final concentrations in culture medium from a 10 mM stock solution, and assayed in triplicate. Vehicle was prepared by adjusting culture medium to 0.1% v/v DMSO which corresponds to the concentration of DMSO in the wells with test compounds.
Cells were incubated in presence of the P38 inhibitor for 30 min. After that cells were stimulated with LPS (E. coli 026:B6, 1 μg/ml) for 4 hr at 37° C. in a 5% CO2-incubator. Reaction was stopped by placing samples on ice and centrifuging for 10 min at 1500×g at 4° C. Cell supernatants were harvested and concentration of TNF—was determined by ELISA (BD Pharmingen, San Diego, Calif., Cat. No. 555212), following the manufacturer's instruction. Absorbance read and analyzed at 450 nm on a spectrophotometric ELISA plate reader (Labsystems Multiskan MCC/340). Replicate readings were averaged and the results are expressed as a percent of OD signal from control.
Usually EC50 stands for the concentration giving half of the maximal effect. Consider `CONC(=O)c1ccc(C)c(Nc2nc(NCc3cccc(C)c3)nc(N[C@H](C)C(C)(C)C)n2)c1` [Compound 12], for which the EC50 is 122 nM.

On to `CONC(=O)c1ccc(C)c(Nc2nc(NCC3CCCC(CN)C3)nc(NC3CCCCC3)n2)c1` (stereo not shown) [Compound 11], for which the EC50 came out at 11 nM.

On to `CONC(=O)c1ccc(C)c(Nc2nc(NCC3CCCC(CN)C3)nc(NC3CCCCC3C)n2)c1` (stereo not shown) [Compound 10], for which the EC50 turned out to be 22 nM.

For the compound `CONC(=O)c1ccc(C)c(Nc2nc(NCC3CCCC(CN)C3)nc(N[C@H](C)C(C)(C)C)n2)c1` (stereo partly shown) [Compound 9], the EC50 came out at 33 nM.
